Values joined by “and” are separate entries in the source; they are usually repeats but may differ in a detail not shown here. Equal values may be shown once.
Assays:
Type in all cases: in vivo
Swiss mice CD1 [1] = assay: forced swim test, Alverine administered intraperitoneally to mice (Example 1); conditions: Imipramine 10 mg/kg intraperitoneally
Description: To establish the advantages according to the present invention a study was carried out to 50 mice. They were divided into 5 groups of 10 mice each. These are Swiss mice CD1 (CD-1® (ICR) IGS (Charles River France) weighing between 25 and 35 g.
They were placed in a room at a temperature of between 19.5 and 24.5° C. and a relative humidity of 45 to 65% with a light/dark cycle of 12 h, ad libitum access to filtered water and pellets of laboratory-standard food.
They are placed 15 to 20 per cage, over an acclimatising period of at least 5 days prior to the tests. They are identified by marking on the fur.
The substance to be tested is Alverine citrate (Sigma, in the form of dry powder, with a salt/base ratio of 1.68) comparatively to imipramine chlorhydrate (Sigma, in the form of dry powder, with a salt/base ratio of 1.13).
The first group is the control group: it is treated only by excipient.
The second group is treated with Alverine at a dose of 3 mg/kg
The third group is treated with Alverine at a dose of 10 mg/kg
The fourth group is treated with Alverine at a dose of 30 mg/kg
The fifth group is treated with imipramine (tricyclic antidepressant) at a dose of 10 mg/kg
The doses are expressed in terms of free active substances. The substances are prepared extemporaneously in the excipient. The treatments are administered 30 minutes prior to the test in a coded and random order intraperitoneally with a volume of 10 ml/kg.
Thirty minutes following administration the five groups of mice are subjected to the forced swim test, in a vertical Plexiglas cylinder (height 24 cm, diameter 9 cm) containing water (height 6 cm, temperature 18-22° C.). The total duration of immobility is measured over the last four minutes of the test, six minutes in total. A mouse is deemed immobile when it ceases struggling and floats in the water without movements superfluous to those allowing it to keep its head above water. A drop in immobility time is the reflection of an antidepressant effect.
The forced swim test is a pre-clinical behavioural model, which has good predictive validity and is widely employed for determining the efficacy of antidepressant medications (Borsini and Meli, 1988).
The results are expressed in total duration of immobility in seconds and as a percentage of variation of the total duration of immobility calculated from the average value of the control group.
The statistical significance between the treated groups and the control group is determined by a Dunnett test using the residual variation according to analysis of the variance (P<0.05). The data are analysed using <<SigmaStat>> software.

Swiss mice CD1 [2] = assay: forced swim test, Alverine administered orally to mice (Example 2)
Swiss mice CD1 [3] = assay: forced swim test, Alverine and imipramine administered intraperitoneally to mice (Example 3, first test); design: key to Dunnett test vs control group: * indicates a significant difference for p < 0.05 (Dunnett test); ns indicates an insignificant result; conditions: for immobility time, individual animals / immobility time, Mean: 30 minutes prior to the test; for immobility time, Mean: n = 10
Description: (§1) These are Swiss mice CD1 (CD-1® (ICR) IGS (Charles River France) weighing between 25 and 35 g. […] They are placed 15 to 20 per cage, over an acclimatising period of at least 5 days prior to the tests. They are identified by marking on the fur. […] The mice were divided into two test comprising six groups of 10 mice each. For the first test: The first group is the control group: it is treated only by excipient. The second group is treated with imipramine at a dose of 3 mg/kg The third group is treated with Alverine at a dose of 3 mg/kg The fourth group is treated with Alverine at a dose of 3 mg/kg and imipramine at a dose of 3 mg/kg The fifth group is treated with imipramine at a dose of 10 mg/kg […] The doses are expressed in terms of free active substances. The test substances are prepared extemporaneously in a saline solution. The treatments are co-administered 30 minutes prior to the test in a coded and random order intraperitoneally with a volume of 10 ml/kg (5 ml/kg for each administration). Thirty minutes following administration the six groups of mice are subjected to the forced swim test, in a vertical Plexiglas cylinder (height 24 cm, diameter 9 cm) containing water (height 6 cm, temperature 18-22° C.). The total duration of immobility is measured over the last four minutes of the test, six minutes in total. A mouse is deemed immobile when it ceases struggling and floats in the water without movements superfluous to those allowing it to keep its head above water. A drop in immobility time is the reflection of an antidepressant effect. The forced swim test is a pre-clinical behavioural model, which has good predictive validity and is widely employed for determining the efficacy of antidepressant medications (Borsini and Meli, 1988). The results are expressed in total duration of immobility in seconds and as a percentage of variation of the total duration of immobility calculated from the average value of the control group. The statistical significance between two treated groups is determined by using a Student test (P<0.05) The data are analysed using <<SigmaStat>> software.

Swiss mice CD1 [4] = assay: forced swim test, Alverine and fluoxetine administered intraperitoneally to mice (Example 3, second test); conditions: for immobility time, individual animals / immobility time, Mean: 30 minutes prior to the test; for immobility time, Mean: n = 10
Description: as §1, with “the second” for “the first”, “excipient.” for “excipient. The second group is treated with imipramine at a dose of 3 mg/kg The third group is treated with Alverine at a dose of 3 mg/kg The fourth group is treated with Alverine at a dose of 3 mg/kg and imipramine at a dose of 3 mg/kg The fifth group is treated with imipramine at a dose of 10 mg/kg”, “administration). […]” for “administration). Thirty minutes following administration the six groups of mice are subjected to the forced swim test, in a vertical Plexiglas cylinder (height 24 cm, diameter 9 cm) containing water (height 6 cm, temperature 18-22° C.).”

[5] = Imipramine 3 mg/kg intraperitoneally
[6] = Imipramine 10 mg/kg intraperitoneally
[7] = tested alone at 3 mg/kg intraperitoneally
[8] = Fluoxetine 3 mg/kg intraperitoneally
[9] = Fluoxetine 10 mg/kg intraperitoneally

SMILES: CN(C)CCCN1c2ccccc2CCc2ccccc21 [Imipramine, imipramine]
- % of variation of immobility time vs control group (Swiss mice CD1 [1]): −62%
- Dunnett test vs control group (Swiss mice CD1 [1]): * (* indicates a significant difference for p < 0.05 (Dunnett test))
- immobility time, individual animals (Swiss mice CD1 [1]; 30 minutes prior to the test): 67 s and 70 s and 1 s and 89 s and 3 s and 9 s and 38 s and 99 s and 53 s and 65 s
- immobility time, Mean (Swiss mice CD1 [1]; 30 minutes prior to the test, N = 10): 49.4 s
- % of variation of immobility time vs control group (Swiss mice CD1 [2]; Imipramine 30 mg/kg orally): −58%
- Dunnett test vs control group (Swiss mice CD1 [2]; Imipramine 30 mg/kg orally): * (* indicates a significant difference for p < 0.05 (Dunnett test))
- immobility time compared with mice treated with Alverine (Swiss mice CD1 [2]; Imipramine 30 mg/kg orally vs Alverine 100 mg/kg orally): comparable to the mice of the fourth group treated at 100 mg/kg of Alverine
- immobility time, individual animals (Swiss mice CD1 [2]; Imipramine 30 mg/kg orally, 60 minutes prior to the test): 52 s and 64 s and 55 s and 5 s and 75 s and 67 s and 70 s and 89 s and 45 s and 96 s
- immobility time, Mean (Swiss mice CD1 [2]; Imipramine 30 mg/kg orally, 60 minutes prior to the test, N = 10): 61.9 s
- % of variation of immobility time vs control group (Swiss mice CD1 [3]; [5]): −24%
- Dunnett test vs control group (Swiss mice CD1 [3]; [5]): ns
- immobility time, individual animals (Swiss mice CD1 [3]; [5]): 121 sec (2×) and 70 sec and 74 sec and 122 sec and 93 sec and 94 sec and 141 sec and 133 sec and 123 sec
- immobility time, Mean (Swiss mice CD1 [3]; [5]): 109.2 s
- % of variation of immobility time vs control group (Swiss mice CD1 [3]; [6]): −67%
- Dunnett test vs control group (Swiss mice CD1 [3]; [6]): * (* indicates a significant difference for p < 0.05 (Dunnett test))
- immobility time, individual animals (Swiss mice CD1 [3]; [6]): 0 s and 62 s and 38 s and 54 s and 45 s and 92 s and 26 s and 77 s and 80 s and 4 s
- immobility time, Mean (Swiss mice CD1 [3]; [6]): 47.8 s
- decrease in the duration of immobilisation as compared to the control group (in words) (Swiss mice CD1 [3]; [7]): statistically insignificant decrease

SMILES: CNCCC(Oc1ccc(C(F)(F)F)cc1)c1ccccc1 (stereo not drawn) [Fluoxetine, fluoxetine]
- % of variation of immobility time vs control group (Swiss mice CD1 [4]; [8]): −30%
- Dunnett test vs control group (Swiss mice CD1 [4]; [8]): * (* indicates a significant difference for p < 0.05 (Dunnett test))
- immobility time, individual animals (Swiss mice CD1 [4]; [8]): 149 s and 18 s and 101 s and 99 s and 10 s and 100 s and 103 s
- immobility time, Mean (Swiss mice CD1 [4]; [8]): 105.6 s
- % of variation of immobility time vs control group (Swiss mice CD1 [4]; [9]): −45%
- Dunnett test vs control group (Swiss mice CD1 [4]; [9]): * (* indicates a significant difference for p < 0.05 (Dunnett test))
- immobility time, individual animals (Swiss mice CD1 [4]; [9]): 76 sec (2×) and 83 sec and 105 sec and 90 sec and 28 sec and 88 sec and 34 sec
- immobility time, Mean (Swiss mice CD1 [4]; [9]): 82.7 s
- decrease in the duration of immobilisation as compared to the control group (in words) (Swiss mice CD1 [4]; [7]): statistically significant decrease
